Assay results as given in patent US20240109881A1, “Heteroaryl Compounds as Ligand Directed Degraders of IRAK4” (Bristol-Myers Squibb Company, priority 2022, published 2024).

Target: T1, IRAK4 (Homo sapiens, UniProt Q9NWZ3)
T1 construct: endogenous in cells; host or cells: THP-1 cells
T1 sequence (Q9NWZ3 1-460): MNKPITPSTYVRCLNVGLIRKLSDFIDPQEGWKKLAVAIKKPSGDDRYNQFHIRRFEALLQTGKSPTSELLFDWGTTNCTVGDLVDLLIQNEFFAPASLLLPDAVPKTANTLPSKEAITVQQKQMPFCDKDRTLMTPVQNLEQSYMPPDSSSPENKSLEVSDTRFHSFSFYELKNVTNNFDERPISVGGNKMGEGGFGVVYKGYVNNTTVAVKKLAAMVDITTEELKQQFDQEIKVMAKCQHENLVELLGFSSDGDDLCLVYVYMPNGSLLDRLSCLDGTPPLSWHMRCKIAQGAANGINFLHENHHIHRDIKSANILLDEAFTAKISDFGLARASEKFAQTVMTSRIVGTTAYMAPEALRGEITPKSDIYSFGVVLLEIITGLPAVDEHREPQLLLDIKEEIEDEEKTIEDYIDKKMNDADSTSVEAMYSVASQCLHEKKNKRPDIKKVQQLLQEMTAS
Assay: LVL THP1 HTRF (THP1 Homogeneous Time Resolved Fluorescence)
Format: cell-based
Conditions: THP1 cells, 18 h incubation with compound; for DC50: read-out: LVL THP1 HTRF EC50
Outline: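 IRAK4 HTRF read-out (665/615 nm ratio, anti-IRAK4 d2 acceptor and K donor, 18 h dark incubation at room temperature) on lysates of THP-1 cells. Cells were treated 18 h at 37° C. with 20 nL compound in DMSO, in colorless RPMI with 10% FBS, with a duplicate CTG plate.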

Structure (SMILES) | DC50 [nM] | LVL THP1 HTRF YMIN [%]
C[C@]1(c2ccc(N3CCN(CC[C@H]4CC[C@H](c5cn(-c6cnc(-n7ncc8cc(C#N)cnc87)cc6NC6(C#N)CC6)nn5)CC4)CC3)cc2)CCC(=O)NC1=O [P-234] | 13 | 
C[C@H](C#N)Nc1cc(-n2ncc3cc(C#N)cnc32)ncc1-n1cc(C2CCC(CCN3C[C@@H](C)N(c4ccc([C@@]5(C)CCC(=O)NC5=O)cc4)C[C@@H]3C)CC2)nn1 (stereo partly drawn) [P-236] | 269 | 23.3
C[C@H](C#N)Nc1cc(-n2ncc3cc(C#N)cnc32)ncc1-n1cc(C2CCC(CCN3[C@@H](C)CN(c4ccc([C@@]5(C)CCC(=O)NC5=O)cc4)C[C@@H]3C)CC2)nn1 (stereo partly drawn) [P-238] | 25 | 1.1
C[C@H](C#N)Nc1cc(-n2ncc3cc(C#N)cnc32)ncc1-n1cc(C2CCC(CCN3CCN(c4ccc([C@@]5(C)CCC(=O)NC5=O)cc4)[C@H](C)C3)CC2)nn1 (stereo partly drawn) [P-239] | 165 | 8.6
C[C@@H]1CN(CCC2CCC(c3cn(-c4cnc(-n5ncc6cc(C#N)cnc65)cc4NC4(C#N)CC4)nn3)CC2)[C@@H](C)CN1c1ccc([C@@]2(C)CCC(=O)NC2=O)cc1 (stereo partly drawn) [P-240] | 297 | 14.5
C[C@H](C#N)Nc1cc(-n2ncc3cc(C#N)cnc32)ncc1-n1cc(C2CCC(CCN3CCN(c4ccc([C@@]5(C)CCC(=O)NC5=O)cc4)[C@@H](C)C3)CC2)nn1 (stereo partly drawn) [P-241] | 39 | 3.5
C[C@H](C#N)Nc1cc(-n2ncc3cc(C#N)c(N)nc32)ncc1-n1cc(C2CCC(CCN3[C@H](C)CN(c4ccc([C@@]5(C)CCC(=O)NC5=O)cc4)C[C@H]3C)CC2)nn1 (stereo partly drawn) [P-242] | 23 | 2.5
C[C@H](C#N)Nc1cc(-n2ncc3cc(C#N)cnc32)ncc1-n1cc(C2CCC(CCN3[C@H](C)CN(c4ccc([C@@]5(C)CCC(=O)NC5=O)cc4)C[C@H]3C)CC2)nn1 (stereo partly drawn) [P-243] | 159 | 3.9
C[C@H](C#N)Nc1cc(-n2ncc3cc(C#N)cnc32)ncc1-n1cc(C2CCC(CCN3C[C@H](C)N(c4ccc([C@@]5(C)CCC(=O)NC5=O)cc4)C[C@H]3C)CC2)nn1 (stereo partly drawn) [P-244] | 56 | 3.5
C[C@H](C#N)Nc1cc(-n2ncc3cc(C#N)c(N)nc32)ncc1-n1cc(C2CCC(CCN3CCN(c4ccc([C@@]5(C)CCC(=O)NC5=O)cc4)[C@@H](C)C3)CC2)nn1 (stereo partly drawn) [P-245] | 12 | 2.6
C[C@]1(c2ccc(N3CCN(CC[C@H]4CC[C@H](c5cn(-c6cnc(-n7ncc8cc(C#N)c(N)nc87)cc6NC6(C#N)CC6)nn5)CC4)CC3)cc2)CCC(=O)NC1=O [P-246] | 6.8 | 4.1
C[C@H](C#N)Nc1cc(-n2ncc3ccc(N4C[C@H]5C[C@@H]4CO5)nc32)ncc1-n1cc([C@H]2CC[C@H](CCN3CCN(c4ccc([C@@]5(C)CCC(=O)NC5=O)cc4)CC3)CC2)nn1 [P-247] | 191 | 13.4
C[C@H](C#N)Nc1cc(-n2ncc3cc(C#N)c(N)nc32)ncc1C(=O)N[C@H]1CC[C@H](CCN2CCN(c3ccc([C@@]4(C)CCC(=O)NC4=O)cc3)[C@@H](C)C2)CC1 [P-248] | 4 | 4.1
C[C@H](C#N)Nc1cc(-n2ncc3cc(C#N)c(N)nc32)ncc1C(=O)N[C@H]1CC[C@H](CCN2CCN(c3ccc([C@@]4(C)CCC(=O)NC4=O)cc3)CC2)CC1 [P-250] | 1.2 | 2.4
C[C@H](C#N)Nc1cc(-n2ncc3cc(C#N)c(N)nc32)ncc1-n1cc([C@H]2CC[C@H](CCN3[C@@H](C)CN(c4ccc([C@@]5(C)CCC(=O)NC5=O)cc4)C[C@@H]3C)CC2)nn1 [P-251] | 9.8 | 1.9
C[C@H](C#N)Nc1cc(-n2ncc3cc(C#N)c(N4C[C@H]5C[C@@H]4CO5)nc32)ncc1-n1cc([C@H]2CC[C@H](CCN3CCN(c4ccc([C@@]5(C)CCC(=O)NC5=O)cc4)CC3)CC2)nn1 [P-269] | 11.8 | 6.3
C[C@H](C#N)Nc1cc(-n2ncc3cc(C#N)cnc32)ncc1C(=O)N[C@H]1CC[C@H](CCN2CC[C@H](c3ccc([C@@]4(C)CCC(=O)NC4=O)cc3)C[C@H]2C)CC1 [P-270] | 6.5 | 0.2

Continued, values first:

DC50 [nM] | LVL THP1 HTRF YMIN [%] | Structure (SMILES)
18.8 | 9.9 | C[C@H](C#N)Nc1cc(-n2ncc3cc(C#N)cnc32)ncc1C(=O)N[C@H]1CC[C@H](CCN2CC[C@@H](c3ccc([C@@]4(C)CCC(=O)NC4=O)cc3)C[C@@H]2C)CC1 [P-271]
10.3 | 10.2 | CC1CN(CC[C@H]2CC[C@H](NC(=O)c3cnc(-n4ncc5cc(C#N)cnc54)cc3N[C@H](C)C#N)CC2)CCC1c1ccc([C@@]2(C)CCC(=O)NC2=O)cc1 (stereo partly drawn) [P-272]
4.9 | 5.6 | C[C@H](C#N)Nc1cc(-n2ncc3cc(C#N)cnc32)ncc1C(=O)N[C@H]1CC[C@H](CCN2CCC(c3ccc([C@@]4(C)CCC(=O)NC4=O)cc3)CC2)CC1 [P-273]
5.8 | 3.5 | C[C@H](C#N)Nc1cc(-n2ncc3cc(C#N)cnc32)ncc1C(=O)N[C@H]1CC[C@H](CCN2CCC(F)(c3ccc([C@@]4(C)CCC(=O)NC4=O)cc3)CC2)CC1 [P-274]
14.6 | 2.9 | C[C@H](C#N)Nc1cc(-n2ncc3cc(C#N)cnc32)ncc1C(=O)N[C@H]1CC[C@H](CCN2CCN(c3ccc([C@@]4(C)CCC(=O)NC4=O)cc3)[C@@H](C)C2)CC1 [P-275]
18.5 | 10.4 | CC1CN(CC[C@H]2CC[C@H](c3cn(-c4cnc(-n5ncc6cc(C#N)cnc65)cc4N[C@H](C)C#N)nn3)CC2)CCC1c1ccc([C@@]2(C)CCC(=O)NC2=O)cc1 (stereo partly drawn) [P-285]
49.3 | 6.5 | C[C@H](C#N)Nc1cc(Nc2ncc(C#N)cc2Cl)ncc1-n1cc([C@H]2CC[C@H](CCN3CCN(c4ccc([C@@]5(C)CCC(=O)NC5=O)cc4)CC3)CC2)nn1 [P-297]
82.7 | 3.2 | C[C@H](C#N)Nc1cc(Nc2ccc(C#N)cn2)ncc1-n1cc([C@H]2CC[C@H](CCN3CCN(c4ccc([C@@]5(C)CCC(=O)NC5=O)cc4)CC3)CC2)nn1 [P-298]
36.4 | 3.5 | C[C@H](C#N)Nc1cc(Nc2ncc(C#N)cc2F)ncc1-n1cc([C@H]2CC[C@H](CCN3CCN(c4ccc([C@@]5(C)CCC(=O)NC5=O)cc4)CC3)CC2)nn1 [P-299]
243 | 11.7 | C[C@H](C#N)Nc1cc(Nc2ncc(C#N)cn2)ncc1-n1cc([C@H]2CC[C@H](CCN3CCN(c4ccc([C@@]5(C)CCC(=O)NC5=O)cc4)CC3)CC2)nn1 [P-300]
103 | 17.8 | C[C@@H]1CN(CC[C@H]2CC[C@H](c3cn(-c4cnc(-n5ncc6cc(C#N)cnc65)cc4NC4(C#N)CC4)nn3)CC2)CCN1c1ccc([C@@]2(C)CCC(=O)NC2=O)cc1 [P-301]
3 | −1.0 | C[C@H](C#N)Nc1cc(-n2ncc3cc(C#N)cnc32)ncc1-n1cc([C@H]2CC[C@H](CCN3CCC(c4ccc([C@@]5(C)CCC(=O)NC5=O)cc4)C(F)C3)CC2)nn1 (stereo partly drawn) [P-311]
2.2 | 1.4 | C[C@H](C#N)Nc1cc(-c2ccc3cc(C#N)cnn23)ncc1-n1cc([C@H]2CC[C@H](CCN3CCN(c4ccc(C5CCC(=O)NC5=O)cc4)CC3)CC2)nn1 (stereo partly drawn) [P-315]
645 | 24.2 | C[C@H](C#N)Nc1cc(-n2ncc3cc(C#N)cnc32)ncc1C(=O)N[C@H]1CC[C@H](CCN2CCN(c3ccc(N4CCC(=O)NC4=O)cc3)CC2)CC1 [P-321]
16.5 | 4.4 | C[C@H](C#N)Nc1cc(-n2ncc3cc(C#N)cnc32)ncc1-n1cc(C[C@H]2CC[C@H](CN3CCN(c4ccc(C5CCC(=O)NC5=O)cc4)CC3)CC2)nn1 (stereo partly drawn) [P-322]
1000 | 107.9 | C[C@H](C#N)Nc1cc(-n2ncc3cc(C#N)cnc32)ncc1-n1cc([C@H]2CC[C@H](CCN3CC(Oc4ccc(N5CCC(=O)NC5=O)cc4)C3)CC2)nn1 [P-324]
5.9 | 2.6 | C[C@H](C#N)Nc1cc(-n2ncc3cc(C#N)cnc32)ncc1-n1cc([C@H]2CC[C@H](CCN3CC4(CC(c5ccc(N6CCC(=O)NC6=O)cc5)C4)C3)CC2)nn1 [P-329]
17.4 | 2.3 | C[C@H](C#N)Nc1cc(-n2ncc3cc(C#N)cnc32)ncc1-n1cc([C@H]2CC[C@H](CCN3CC=C(c4ccc(N5CCC(=O)NC5=O)cc4)CC3)CC2)nn1 [P-330]
58.7 | 23.5 | Cc1cc(N2CCC(=O)NC2=O)ccc1C1CCN(CC[C@H]2CC[C@H](c3cn(-c4cnc(-n5ncc6cc(C#N)cnc65)cc4N[C@H](C)C#N)nn3)CC2)CC1 [P-334]
29.8 | 5.1 | C[C@H](C#N)Nc1cc(-n2ncc3cc(C#N)cnc32)ncc1-n1cc([C@H]2CC[C@H](CCN3CCC(c4cccc5c(N6CCC(=O)NC6=O)nn(C)c45)CC3)CC2)nn1 [P-335]
25.1 | 5.5 | Cc1cc(C2CCN(CC[C@H]3CC[C@H](c4cn(-c5cnc(-n6ncc7cc(C#N)cnc76)cc5N[C@H](C)C#N)nn4)CC3)CC2)ccc1N1CCC(=O)NC1=O [P-336]
